Test results taken from paper PMC9144581, “In Vitro Anti-Proliferative, and Kinase Inhibitory Activity of Phenanthroindolizidine Alkaloids Isolated from Tylophora indica” (Plants, 2022).
Like-named read-outs stand apart in the source and are kept apart here.

Experiments:
HepG2 = assay: MTT anti-proliferative assay, HepG2; assay type: cell-based, Human; settings: read-out: IC50 ± SD, HepG2
Procedure: (§1) The cells proliferations were determined by MTT [3-(4,5-dimethylthiazol-2-yl)-2,5-diphenyltetrazolium bromide] assays, wherein MTT color intensity was directly associated with the number of healthy, living cells. The three cancer cell lines, i.e., MCF-7, Michigan Cancer Foundation-7; HepG2, Human hepatocellular carcinoma; and HCT-116, Human colorectal carcinoma, were obtained from the Laboratory of Parasitology, Faculty of Medicine, Universitas Gadjah Mada Indonesia. The cells were cultured in DMEM (Dulbecco’s Modified Eagle’s Medium) (Gibco, Waltham, MA, USA) with 10% Fetal Bovine Serum (FBS, Gibco), 2% Sodium bicarbonate (NaHCO3, Gibco), and HEPES (4-2(2-hydroxyethyl)-1-piperazine ethane sulfonic acid) (Invitrogen). The cell lines were maintained at 37 °C in a humidified incubator containing 5% CO2. The IC50 values as µM were determined after 48-h of compounds incubations with the cells. The assays were determined as mean ± SD: Standard Deviation (n = 3) (p < 0.005, compared with the standard value).

MCF-7 = assay: MTT anti-proliferative assay, MCF-7; assay type: cell-based; settings: read-out: IC50 ± SD, MCF-7
Procedure: as §1

HCT-116 = assay: MTT anti-proliferative assay, HCT-116; assay type: cell-based, Human; settings: read-out: IC50 ± SD, HCT-116
Procedure: as §1

Aurora-A = target: T1, Aurora-A (Homo sapiens, UniProt O14965); assay: Radiometric protein kinase assay, Aurora-A; assay type: biochemical
T1 construct: purchased Sigma-Aldrich
T1 sequence (O14965 1-403): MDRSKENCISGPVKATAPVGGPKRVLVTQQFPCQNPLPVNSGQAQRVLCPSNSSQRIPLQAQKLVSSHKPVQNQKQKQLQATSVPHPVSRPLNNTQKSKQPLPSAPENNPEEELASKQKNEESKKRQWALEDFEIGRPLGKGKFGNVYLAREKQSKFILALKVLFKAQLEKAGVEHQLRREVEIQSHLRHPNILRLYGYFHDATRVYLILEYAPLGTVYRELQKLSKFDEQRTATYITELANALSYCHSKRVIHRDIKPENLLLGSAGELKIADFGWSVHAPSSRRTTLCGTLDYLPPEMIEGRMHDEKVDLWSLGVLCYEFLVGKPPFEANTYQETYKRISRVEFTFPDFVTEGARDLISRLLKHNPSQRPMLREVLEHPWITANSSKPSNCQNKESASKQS
Procedure: (§2) The radiometric protein kinase assays (RPKA) were used to investigate the kinase inhibitory effects of the isolated compounds. The method was dependent on the incorporation of radioactive ^33P isotope with ATP, and the percentage of phosphorylation was determined using the microplate-scintillation counter (Microbeta, Wallac, Finland) method. The half-maximal inhibitory concentration (IC50) values of compounds were measured by a microplate-scintillation counter. The control mixture (without peptide substrate) measures endogenous phosphorylation of proteins in the Protein Kinase Sample by-^33P-ATP. The purified protein kinases were used as positive controls for the assay (Sigma-Aldrich, St. Louis, MO, USA).

Aurora-B = target: T2, Aurora-B (Homo sapiens, UniProt Q96GD4); assay: Radiometric protein kinase assay, Aurora-B; assay type: biochemical
T2 construct: purchased Sigma-Aldrich
Procedure: as §2

[1] = MTT assay, 48-h incubation, n = 3
[2] = radiometric kinase assay, 33P-ATP, average of three independent experiments, read-out: IC50 Values, Aurora-A
[3] = radiometric kinase assay, 33P-ATP, average of three independent experiments, read-out: IC50 Values, Aurora-B
[4] = Homo sapiens, HepG2, MTT assay, 48-h incubation, n = 3
[5] = Homo sapiens, MCF7, MTT assay, 48-h incubation, n = 3
[6] = Homo sapiens, HCT-116, MTT assay, 48-h incubation, n = 3

T2 sequence (Q96GD4 whole entry): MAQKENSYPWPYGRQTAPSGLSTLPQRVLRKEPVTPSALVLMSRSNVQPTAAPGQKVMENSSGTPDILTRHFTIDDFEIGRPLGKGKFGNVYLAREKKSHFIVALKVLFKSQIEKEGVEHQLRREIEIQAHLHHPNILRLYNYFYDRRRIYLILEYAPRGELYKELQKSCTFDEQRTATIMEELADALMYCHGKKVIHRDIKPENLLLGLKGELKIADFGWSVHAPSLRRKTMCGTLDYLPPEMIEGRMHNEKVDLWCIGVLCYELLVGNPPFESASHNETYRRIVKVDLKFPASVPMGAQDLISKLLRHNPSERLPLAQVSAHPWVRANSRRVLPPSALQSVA

Row | Structure (SMILES) | IC50 (Aurora-A) | IC50 (Aurora-B) | IC50 (HepG2; Homo sapiens, HepG2, 48 h) | IC50 (MCF-7; Homo sapiens, MCF7, 48 h) | IC50 (HCT-116; Homo sapiens, HCT-116, 48 h) | IC50 (Aurora-A; [2]) | IC50 (Aurora-B; [3]) | IC50 (HepG2; [4]) | IC50 (MCF-7; [5]) | IC50 (HCT-116; [6]) | also measured
1 | N.N.[Cl][Pt][Cl] [Cisplatin, reference compound] |  |  |  |  |  |  |  |  |  |  | IC50 (HepG2; [1]): 12.9 ± 0.91 µM; IC50 (MCF-7; [1]): 5.7 ± 0.76 µM; IC50 (HCT-116; [1]): 14.4 ± 1.69 µM
2 | COc1cc2c3c(c4cc(OC)c(OC)cc4c2cc1OC)CN1CCC[C@@H]1C3 [Compound 1, (-)-Tylophorine] | 21.4 ± 1.24 µM | 18.3 ± 1.32 µM | 40.1 ± 2.94 µM | 126 µM | 142 ± 3.06 µM |  |  |  |  |  | 
3 | COc1cc2c3c(c4cc(OC)c(OC)cc4c2cc1OC)[C@@H](O)[C@H]1CCCN1C3 [Compound 2, 2,3,6,7-tetramethoxy-14β-hydroxy-phenanthroindolizidine] |  |  |  |  |  | 16.2 ± 1.43 µM | 10.2 ± 1.21 µM | 35.3 ± 2.97 µM | 50.7 ± 2.86 µM | 75.5 µM | 
4 | COc1ccc2c3c(c4cc(OC)c(OC)cc4c2c1)CN1CCC[C@H]1[C@@H]3O [Compound 3, 3,6,7-trimethoxy-14α-hydroxy-phenanthroindolizidine] | 4.1 ± 1.08 µM | 3.6 ± 0.93 µM | 23.8 ± 3.02 µM | 32 ± 2.64 µM | 87 ± 3.08 µM |  |  |  |  |  | 
5 | COc1ccc2c3c(c4cc(OC)c(OC)cc4c2c1)C[N+]1([O-])CCC[C@H]1[C@H]3O (stereo partly drawn) [Compound 4, 3,6,7-trimethoxy-14α-hydroxy-phenanthroindolizidine-N-Oxide] |  |  |  |  |  | > 100 µM | > 100 µM | 197 µM | > 200 µM | > 200 µM | 
6 | COc1ccc2c3c(c4cc(OC)c(O)cc4c2c1)CN1CCC[C@H]1[C@H]3O [Compound 5, 14α-hydroxy-6-demethyl Tylophorinine] |  |  |  |  |  | 0.6 ± 0.72 µM | 1.3 ± 0.58 µM | 4.77 ± 2.11 µM | 6.45 ± 2.06 µM | 20.1 ± 1.94 µM | 
7 | COc1ccc2c3c(c4cc(OC)c(O)cc4c2c1)C[N+]1([O-])CCCC1C3O (stereo not drawn) [Compound 6, 14α-hydroxy-6-demethyltylophorinine N-Oxide] |  |  |  |  |  | 2.6 ± 0.86 µM | 6.5 ± 0.76 µM | 15.3 ± 2.04 µM | 12.2 ± 1.81 µM | 65.6 ± 2.24 µM | 
8 | COc1ccc(C2=C(c3ccc(OC)c(OC)c3)CN3CCCC3C2)cc1OC (centres unmarked) [Compound 7, 6,7-Bis (3,4-dimethoxyphenyl)-1,2,3,5,8,8a-hexahydroindolizine] | > 100 µM | > 100 µM | > 200 µM | > 200 µM | > 200 µM |  |  |  |  |  | 
9 | O=C(/C=C/c1ccc(O)c(O)c1)O[C@@H]1C[C@](O)(C(=O)O)C[C@@H](O)[C@H]1O [Compound 8, chlorogenic acid] |  |  |  |  |  |  |  | 170 µM | 134 µM | > 200 µM | 
10 | COC(=O)[C@]1(O)C[C@@H](O)[C@@H](O)[C@H](OC(=O)/C=C/c2ccc(O)c(O)c2)C1 [Compound 9, chlorogenic acid methyl ester] |  |  |  |  |  |  |  | > 200 µM | > 200 µM | > 200 µM | 
